Test results from US6566331B1, “Treatment of collagen related diseases” (Alphamed Pharmaceutical Corp, priority 1999, dated 2003).

Assays:
Format in all cases: in vivo, human
[1] = test system: women with interstitial cystitis; assay: 19 patient study of women with interstitial cystitis, intravesical instillation
Experimental: A 19 patient study of women with interstitial cystitis was conducted for four weeks. Three of the patients were diagnosed as being urinary incontinent. The diagnosis of IC was considered as being mild to severe. Powdered alpha 1-antitrypsin (40 mg) was dissolved in 40 ml of saline solution. The solutions were instilled into the bladder for 20 minutes weekly for four weeks. Cystoscopy was carried out during and after filling the bladder for one minute at a pressure of 80 cm of water under spinal and general anesthesia. Bladder biopsies were carried out during cystoscopy. 24-hour collection for measurement of creatine, methylhistamine and tryptase were taken.
In lieu of the recombinant or natural alpha 1-antitrypsin, the conjugate with PEG may be used.

[2] = test system: patient with rheumatoid arthritis; assay: DMSO solution administered to arthritic knee of a patient with rheumatoid arthritis; details: 5 percent solution in DMSO, topical on arthritic knee; after one week of treatment
Experimental: A 5 percent solution of alpha 1-antitrypsin was prepared with DMSO. A patient with rheumatoid arthritis administered the composition to an arthritic knee.

[3] = test system: patient having scleroderma of the finger; assay: salve used daily on a patient having scleroderma of the finger
Experimental: A salve comprising 1% alpha 1-antitrypsin was prepared with Aquaphor® and 1% water. The salve was used daily on a patient having scleroderma of the finger. The finger was bent and constricted. The skin around the finger was hardened. After a daily application for one month the skin was softer, the finger was more flexible and the bending was less severe.

[4] = 40 mg in 40 ml saline instilled into the bladder for 20 minutes weekly for four weeks, weekly studies
[5] = salve, 1% alpha 1-antitrypsin with Aquaphor and 1% water, daily application for one month

Substance: alpha 1-antitrypsin
- creatine, 24-hour collection [1, 4]: decrease
- methylhistamine, 24-hour collection [1, 4]: decrease
- tryptase, 24-hour collection [1, 4]: decrease
- lesions by cystoscopy ([1]; after two weeks of weekly instillation): substantial decrease in lesions
- continence of the incontinent patients ([1]; after two weeks of weekly instillation, three urinary incontinent patients): continent
- knee flexibility [2]: greater flexibility
- knee pain [2]: free of pain
- knee swelling [2]: substantial reduction in swelling
- bending of the finger [3, 5]: less severe
- flexibility of the finger [3, 5]: more flexible
- skin around the finger [3, 5]: softer
- finger position after the treatment was stopped ([3]; within six months after stopping the 1% salve): returned to the bent position
